These results are taken from PMC9873282, “Design, synthesis and evaluation of quinoline-O-carbamate derivatives as multifunctional agents for the treatment of Alzheimer’s disease” (Journal of Enzyme Inhibition and Medicinal Chemistry, 2023).

Series [1] has as its target T1, eeAChE (Electrophorus electricus, UniProt O42275).
T1 construct: eeAChE, from the electric eel; purchased Sigma Aldrich; host or cells: electric eel (natural source)
Nature of the series: biochemical. Also noted: species or system electric eel. The method, then: (§1) The inhibitory activities of the synthesised compounds against eeAChE (from electric eel) and eqBuChE (from equine serum) were tested by the modified Ellman’s method[26]^,[27]. […] The determination of AChE and BuChE inhibitory potency of the synthesised compounds were evaluated by Ellman assay, the detailed procedure referred to our previous work[26]^,[27].

Series [2] deals with T2, eqBuChE (Equus caballus, UniProt P81908).
T2 construct: eqBuChE, from equine serum; purchased Sigma Aldrich; host or cells: equine serum (natural source)
Briefly: biochemical. The settings on record: for IC50: BuChE from equine serum; for SI = IC50 (AChE)/IC50 (BuChE): eeAChE/eqBuChE. Further details: species or system equine. The method, then:
as §1

The target in series [3] is T3, hBuChE (Homo sapiens, UniProt P06276).
T3 construct: hBuChE, human serum BuChE; purchased Sigma Aldrich; host or cells: human serum (natural source)
Briefly: biochemical. As to conditions: for IC50: from human serum; for SI = IC50 (AChE)/IC50 (BuChE): hAChE/hBuChE. As for the experimental part: (§2) Acetylcholinesterase (eeAChE, from the electric eel; hAChE, from human erythrocytes AChE), butyrylcholinesterase (eqBuChE, from equine serum; hBuChE, human serum BuChE), 5,5′-dithiobis-2-nitrobenzoic acid (Ellman’s reagent, DTNB), acetylthiocholine chloride (ATC), and butyrylthiocholine chloride (BTC) were purchased form Sigma Aldrich. The determination of AChE and BuChE inhibitory potency of the synthesised compounds were evaluated by Ellman assay, the detailed procedure referred to our previous work[26]^,[27].

Series [4] deals with T4, hAChE (Homo sapiens, UniProt P22303).
T4 construct: hAChE, from human erythrocytes AChE; purchased Sigma Aldrich; host or cells: human erythrocytes (natural source)
Nature of the series: biochemical. The method, then:
as §2

The subject of series [5] is IL-1β. Nature of the series: IL-1β production in LPS-stimulated BV-2 cells (ELISA). Format: cell-based. As to conditions: 1 µg/mL LPS 24 h. As for the experimental part:
(§3) Firstly, the cytotoxicity of compounds 3a, 3c, 3e, 3f, 3k, 3m and 3n were tested using CCK8 assay.
(§4) BV-2 cells (2 × 10^5 cells/well) were seeded in a 24-well cell culture plates. The cells were divided into blank control group, model group (1 µg/mL LPS), LPS + 2 µM compound group, LPS + 1 µM compound group. Each drug group was pre-treated with corresponding concentration of drug solution for 8 h. After 8 h, the culture medium was aspirated out. Except for the blank control group, which was added with DMEM medium, the other groups were stimulated with 1 µg/mL LPS for 24 h. Then cell supernatant was aspirated and centrifuged at 3000 rpm for 3 min. The content of NO in cell culture supernatant was determined by Griess method, and the levels of cytokines IL-6 and IL-1β in cell culture supernatant were determined by IL-6 ELISA kit and IL-1β ELISA kit, respectively.
A general note: In an ELISA, binding on a coated surface is turned into a signal by an enzyme label.

Series [6] has as its system IL-6. Nature of the series: IL-6 production in LPS-stimulated BV-2 cells (ELISA). The series is classed as cell-based. As to conditions: 1 µM and 2 µM; 1 µg/mL LPS 24 h. The method, then: as §3, §4
Series [7] deals with BV-2 cells. Briefly: Cytotoxicity on BV-2 cells (CCK8 assay). The series is classed as cell-based. The settings on record: compounds at 2 µM. The method, then: as §3
BV-2 cells were cultured in DMEM containing 10% foetal bovine serum, 100 U/mL penicillin, 100 U/mL streptomycin, and 1% nonessential amino acid at 37 °C with 5% CO2.
BV-2 cells in logarithmic growth stage were digested and centrifuged, and then resuspended in DMEM medium containing 1% penicillin-streptomycin and 10% foetal bovine serum. The cells was adjusted to 1.2 × 10^4 cells/well, and then seeded evenly in 96-well cell culture plates. The cells were incubated for 36 h at 37 °C with 5% CO2. After incubation, the cells were added to different concentrations (10 and 2 µM) of tested compounds, and incubated for 24 h at 37 °C with 5% CO2. Then, 10 µL CCK-8 solution was added to each well, and incubated for another 1 h at 37 °C with 5% CO2. The OD values were tested at […]. The cell viability (%) = {(ODdrug−ODblank)}/{(ODcontrol−ODblank)} × 100%.
Background: Formazan colour is commonly taken as a measure of viable cells.

The test system of series [8] is NO. Briefly: NO release in LPS-stimulated BV-2 cells (Griess method). The settings on record: 1 µg/mL LPS 24 h. Format: cell-based. As for the experimental part:
as §3, §4

The subject of series [9] is PC12 cells. Briefly: Cytotoxicity on PC12 cells. Format: cell-based. As to conditions: at concentration below 40 µM. As for the experimental part: (§5) The neuroprotective effect of compounds 3a, 3c, 3e, 3f, 3k, 3m, and 3n on Aβ25–35-induced PC12 cells injury were evaluated using CCK-8 assay. […] Furthermore, as shown in Figure 12(B), when PC12 cells were exposed to 25 µM Aβ25-35, the cell viability sharply declined to 57.3% (p < 0.01) compared with untreated group.
(§6) The PC12 cells during the logarithmic growth phase were digested and centrifuged with pancreatic enzyme solution, the cells were resuspended by adding the prepared media solution, and piped evenly with a pipette to seed in a 96-well cell culture plate (cell concentration adjusted to 2.0 × 10^4 cell·mL^−1). Each well was added 100 µL complete medium was added to each well and incubated at 37 °C and 5% CO2 for 24 h.

The test system of series [10] is Aβ25-35-induced PC12 cells injury. Briefly: Neuroprotective effect on Aβ25-35-induced PC12 cells injury (CCK-8). Format: cell-based. As to conditions: 25 µM Aβ25-35; model cell viability 57.3%. The method, then: as §5
• Preparation of Aβ25-35 aggregation. Aβ25-35 was purchased from sigma. 1 mg Aβ25-35 was dissolved in 943 µL of sterilised deionised water to obtain 1 mM stock solution, aliquoted, –20 °C preservation. Removing the appropriate volume in a 48-well plate and incubated in a 37 °C incubator for two days to allow its ageing to accumulate and produce neurotoxicity. After aggregation was completed, the solution was diluted with PBS to get 25 µM solution of Aβ25-35 aggregation. • Neuroprotective effects of compounds on Aβ25-35-induced PC12 cells injury
as §6
After incubation for 24 h, PC12 cells were divided into blank group, control group, Aβ25-35 model group and tested compounds group (5, 10, 20 µM). Then the original medium was discarded, and 100 µL new complete medium were added to PC12 cells, and the tested compounds group was added to 100 µL complete medium containing different concentrations (5, 10, and 20 µM) of tested compounds, incubated for 2 h at 37 °C, 5% CO2 conditions. After incubation for 2 h, 10 µL Aβ25-35 solution was added to the tested compounds groups and model group (the final concentration of Aβ25-35 was 25 µM), and incubated for 24 h at 37 °C, 5% CO2 conditions, 10 µL CCK-8 was added to each well and further incubated for 1 h at 37 °C and 5% CO2. Finally, the OD value was measured at 450 nm using a microplate reader, and each concentration set three wells. The cell survival rate (%) was determined according to the following formula: cell viability (%) = {(ODdrug−ODblank)}/{(ODcontrol−ODblank)}.

Setting [11] is: AChE from electric eel, read-out: IC50 ± SD eeAChE.
[12] abbreviates: from human erythrocytes, read-out: IC50 ± SD hAChE.

Where “and” joins values, the source holds several entries; their conditions need not be identical. Equal entries are not always repeated. Where two headings read alike, the source gives them in different places.

T3 sequence (P06276 29-602): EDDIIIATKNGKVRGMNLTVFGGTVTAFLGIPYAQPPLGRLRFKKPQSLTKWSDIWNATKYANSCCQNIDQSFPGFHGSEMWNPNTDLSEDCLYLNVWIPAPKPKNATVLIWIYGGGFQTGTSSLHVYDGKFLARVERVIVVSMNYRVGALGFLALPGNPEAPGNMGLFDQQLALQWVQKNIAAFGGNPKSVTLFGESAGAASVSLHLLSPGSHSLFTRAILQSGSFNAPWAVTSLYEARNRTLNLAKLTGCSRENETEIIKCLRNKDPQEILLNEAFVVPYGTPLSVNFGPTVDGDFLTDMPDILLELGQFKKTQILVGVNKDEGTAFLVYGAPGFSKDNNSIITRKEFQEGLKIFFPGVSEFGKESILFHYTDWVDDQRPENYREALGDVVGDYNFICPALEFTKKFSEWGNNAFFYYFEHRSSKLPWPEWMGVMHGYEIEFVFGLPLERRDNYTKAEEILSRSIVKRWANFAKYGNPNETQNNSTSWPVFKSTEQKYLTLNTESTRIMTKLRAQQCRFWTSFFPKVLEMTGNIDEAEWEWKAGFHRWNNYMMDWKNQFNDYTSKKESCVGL
T1 sequence (O42275 24-633): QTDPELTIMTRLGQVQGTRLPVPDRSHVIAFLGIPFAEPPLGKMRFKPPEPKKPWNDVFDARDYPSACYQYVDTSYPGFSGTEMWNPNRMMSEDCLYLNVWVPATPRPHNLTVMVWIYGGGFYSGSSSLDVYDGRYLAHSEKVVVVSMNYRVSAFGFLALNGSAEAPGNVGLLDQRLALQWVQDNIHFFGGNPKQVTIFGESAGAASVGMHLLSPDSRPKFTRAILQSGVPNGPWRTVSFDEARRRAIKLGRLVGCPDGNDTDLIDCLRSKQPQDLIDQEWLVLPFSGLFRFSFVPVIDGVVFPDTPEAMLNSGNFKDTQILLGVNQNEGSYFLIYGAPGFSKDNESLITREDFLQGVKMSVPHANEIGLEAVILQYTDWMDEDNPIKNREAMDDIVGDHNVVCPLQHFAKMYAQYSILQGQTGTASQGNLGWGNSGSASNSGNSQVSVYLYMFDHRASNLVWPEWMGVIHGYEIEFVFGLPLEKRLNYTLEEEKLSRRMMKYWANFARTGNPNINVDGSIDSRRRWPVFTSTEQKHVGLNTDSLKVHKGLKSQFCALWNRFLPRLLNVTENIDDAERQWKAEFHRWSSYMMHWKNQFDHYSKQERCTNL
T2 sequence (P81908 whole entry): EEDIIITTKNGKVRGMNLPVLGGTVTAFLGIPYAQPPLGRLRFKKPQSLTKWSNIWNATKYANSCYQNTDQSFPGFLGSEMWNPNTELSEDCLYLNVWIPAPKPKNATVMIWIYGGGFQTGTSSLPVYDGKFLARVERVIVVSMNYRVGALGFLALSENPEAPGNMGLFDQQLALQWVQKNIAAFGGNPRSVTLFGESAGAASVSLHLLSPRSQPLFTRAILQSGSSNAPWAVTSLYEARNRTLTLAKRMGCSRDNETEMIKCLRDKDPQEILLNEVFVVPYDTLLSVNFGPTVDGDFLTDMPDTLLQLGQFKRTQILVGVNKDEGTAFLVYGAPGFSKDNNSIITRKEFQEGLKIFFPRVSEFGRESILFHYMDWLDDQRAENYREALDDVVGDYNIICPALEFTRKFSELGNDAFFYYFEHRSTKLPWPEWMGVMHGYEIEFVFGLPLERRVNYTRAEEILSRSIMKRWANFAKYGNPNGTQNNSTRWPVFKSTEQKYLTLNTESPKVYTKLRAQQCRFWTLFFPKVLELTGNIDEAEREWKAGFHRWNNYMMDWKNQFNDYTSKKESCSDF
T4 sequence (P22303 32-617 isoform P22303-2 limits assumed): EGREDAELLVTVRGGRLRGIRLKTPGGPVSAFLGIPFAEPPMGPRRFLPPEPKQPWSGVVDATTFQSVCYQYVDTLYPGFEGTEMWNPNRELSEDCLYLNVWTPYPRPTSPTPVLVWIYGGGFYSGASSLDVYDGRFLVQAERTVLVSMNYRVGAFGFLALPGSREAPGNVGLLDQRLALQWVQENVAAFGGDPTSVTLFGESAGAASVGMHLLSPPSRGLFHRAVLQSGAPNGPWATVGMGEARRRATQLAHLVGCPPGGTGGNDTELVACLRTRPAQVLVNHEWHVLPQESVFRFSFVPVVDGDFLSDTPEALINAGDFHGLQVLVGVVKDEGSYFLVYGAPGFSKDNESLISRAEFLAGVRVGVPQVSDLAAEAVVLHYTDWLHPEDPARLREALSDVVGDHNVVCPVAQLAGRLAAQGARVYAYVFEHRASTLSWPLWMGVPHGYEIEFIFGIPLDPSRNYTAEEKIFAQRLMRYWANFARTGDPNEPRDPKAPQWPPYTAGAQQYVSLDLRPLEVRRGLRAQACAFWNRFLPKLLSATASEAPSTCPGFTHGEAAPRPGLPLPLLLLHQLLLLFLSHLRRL

Usually IC50 stands for the point on the concentration scale where inhibition reaches its midpoint. Regarding `CCN(CC)C(=O)Oc1ccnc2ccccc12` [Compound 3b, Quinolin-4-yl diethylcarbamate], the 50% inhibitory concentration (IC50) in [1] (setting [11]) was 12.7 ± 0.13 µM; in series [2] (read-out: IC50 ± SD eqBuChE), 1.06 µM and 1.1 µM; in series [3] (read-out: IC50 ± SD hBuChE), 5.39 µM and 5.4 µM; in series [4] (setting [12]) it was 30.2 ± 0.61 µM. Also, the entries for the “SI = IC50 (AChE)/IC50 (BuChE)” value in series [2] and in series [3] were 11.5 and 5.6, respectively.

Regarding `O=C(Oc1ccnc2ccccc12)N1CCOCC1` [Compound 3d, Quinolin-4-yl morpholine-4-carboxylate], the IC50 was 15.7 ± 0.27 µM in series [1] (setting [11]); 0.87 ± 0.05 µM in series [2] (read-out: IC50 ± SD eqBuChE); 9.46 µM and 9.5 µM in series [3] (read-out: IC50 ± SD hBuChE); 26.9 ± 0.74 µM in series [4] (setting [12]). Also, the “SI = IC50 (AChE)/IC50 (BuChE)” value in [2] is 18.0; in series [3], 2.8.

Consider `CN(C)C(=O)Oc1cccc2ncccc12` [Compound 3e, Quinolin-5-yl dimethylcarbamate], for which the IC50 in [1] stood at 4.5 ± 0.04 µM; in series [2] (IC50 ± SD eqBuChE), 0.94 ± 0.07 µM; in series [3] (IC50 ± SD hBuChE), 3.7 ± 0.05 µM; in series [4], 10.4 ± 0.21 µM. The “levels of IL-1β compared with model group” value in [5] is “significantly decreased”. In [6], the “levels of IL-6 compared with model group” value was “significantly decreased”. Moreover, the “SI = IC50 (AChE)/IC50 (BuChE)” value in [2] is 4.8; in series [3], 2.8. Further, the “cell viability of BV-2 cells” value in [7] is “did not show obvious change”. Besides, in [8], the “release volume of NO” value is reported as “significantly decreased”. Besides, in series [9], the “cytotoxicity on PC12 cells” value was “did not show any cytotoxicity”. Moreover, the “neuroprotective effect on Aβ25-35-induced PC12 cells injury” value in [10] is “remarkable neuroprotective effects at 5 and 10 µM”.
